According to PubChem BioAssay AID1963850 (Molecular Pharmacology Branch, DTP, NCI, 2024):

System: 192522-019-R-J2-PDC complex tumor spheroid viability
Assay: Anticancer human tumor 192522-019-R-J2-PDC patient-derived colon adenocarcinoma cell line growth inhibition [POLQ]
Conditions: for IC50: curve of first compound; for viability, T/C: stronger effect = lower value
In short: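 Patient-derived tumour cells were co-cultured with HUVEC and mesenchymal stem cells as multicellular spheroids at 37 °C. They were treated with POLQ inhibitors (novobiocin, ART-558, RP6685) alone or combined with other agents. Top concentrations were at or near clinical Cmax (otherwise 10 microM; SN-38 at 1 microM), decreasing in half-log steps.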

[1] = second compound 0.0316 µM, first compound 0.0316 µM
[2] = second compound 0.0316 µM, first compound 0.1 µM
[3] = second compound 0.0316 µM, first compound 0.316 µM
[4] = second compound 0.0316 µM, first compound 1 µM
[5] = second compound 0.1 µM, first compound 0.0316 µM
[6] = second compound 0.1 µM, first compound 0.1 µM
[7] = second compound 0.1 µM, first compound 0.316 µM
[8] = second compound 0.1 µM, first compound 1 µM
[9] = second compound 0.316 µM, first compound 0.0316 µM
[10] = second compound 0.316 µM, first compound 0.1 µM
[11] = second compound 0.316 µM, first compound 0.316 µM
[12] = second compound 0.316 µM, first compound 1 µM
[13] = second compound 1 µM, first compound 0.0316 µM
[14] = second compound 1 µM, first compound 0.1 µM
[15] = second compound 1 µM, first compound 0.316 µM
[16] = second compound 1 µM, first compound 1 µM
[17] = second compound 3.16 µM, first compound 0.0316 µM
[18] = second compound 3.16 µM, first compound 0.1 µM
[19] = second compound 3.16 µM, first compound 0.316 µM
[20] = second compound 3.16 µM, first compound 1 µM
[21] = second compound 10 µM, first compound 0.0316 µM
[22] = second compound 10 µM, first compound 0.1 µM
[23] = second compound 10 µM, first compound 0.316 µM
[24] = second compound 10 µM, first compound 1 µM
[25] = second compound 0.0316 µM, first compound 0.00316 µM
[26] = second compound 0.0316 µM, first compound 0.01 µM
[27] = second compound 0.1 µM, first compound 0.00316 µM
[28] = second compound 0.1 µM, first compound 0.01 µM
[29] = second compound 0.316 µM, first compound 0.00316 µM
[30] = second compound 0.316 µM, first compound 0.01 µM
[31] = second compound 1 µM, first compound 0.00316 µM
[32] = second compound 1 µM, first compound 0.01 µM
[33] = second compound 3.16 µM, first compound 0.00316 µM
[34] = second compound 3.16 µM, first compound 0.01 µM
[35] = second compound 10 µM, first compound 0.00316 µM
[36] = second compound 10 µM, first compound 0.01 µM
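Also: spheroids exposed to drugs for seven days before reading.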
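For viability, T/C in this document: 100% = DMSO vehicle control viability in luminescence.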

CNCc1ccc(-c2[nH]c3cc(F)cc4c3c2CCNC4=O)cc1 + COC1C(OC(N)=O)C(O)C(Oc2ccc3c(O)c(NC(=O)c4ccc(O)c(CC=C(C)C)c4)c(=O)oc3c2C)OC1(C)C
IC50 (second compound 0.0316 µM): > 10000 nM | IC50 (second compound 0.1 µM): > 10000 nM | IC50 (second compound 0.316 µM): > 10000 nM | IC50 (second compound 1 µM): > 10000 nM | IC50 (second compound 3.16 µM): > 10000 nM | IC50 (second compound 10 µM): > 10000 nM | viability, T/C [1]: 94.4% | viability, T/C [2]: 90.5% | viability, T/C [3]: 96% | viability, T/C [4]: 99.2% | viability, T/C (second compound 0.0316 µM, first compound 3.16 µM): 102% | viability, T/C (second compound 0.0316 µM, first compound 10 µM): 99.3% | viability, T/C [5]: 110% | viability, T/C [6]: 96% | viability, T/C [7]: 96.4% | viability, T/C [8]: 103% | viability, T/C (second compound 0.1 µM, first compound 3.16 µM): 114% | viability, T/C (second compound 0.1 µM, first compound 10 µM): 96.4% | viability, T/C [9]: 107% | viability, T/C [10]: 102% | viability, T/C [11]: 102% | viability, T/C [12]: 107% | viability, T/C (second compound 0.316 µM, first compound 3.16 µM): 99.5% | viability, T/C (second compound 0.316 µM, first compound 10 µM): 101% | viability, T/C [13]: 99.7% | viability, T/C [14]: 96% | viability, T/C [15]: 98.5% | viability, T/C [16]: 104% | viability, T/C (second compound 1 µM, first compound 3.16 µM): 102% | viability, T/C (second compound 1 µM, first compound 10 µM): 97.5% | viability, T/C [17]: 110% | viability, T/C [18]: 98.7% | viability, T/C [19]: 102% | viability, T/C [20]: 101% | viability, T/C (second compound 3.16 µM, first compound 3.16 µM): 99.9% | viability, T/C (second compound 3.16 µM, first compound 10 µM): 95.7% | viability, T/C [21]: 102% | viability, T/C [22]: 95% | viability, T/C [23]: 106% | viability, T/C [24]: 96.9% | viability, T/C (second compound 10 µM, first compound 3.16 µM): 98.6% | viability, T/C (second compound 10 µM, first compound 10 µM): 102%

COc1cccc(OCCCN)c1-c1cc(Nc2cnc(C#N)cn2)n[nH]1 + COC1C(OC(N)=O)C(O)C(Oc2ccc3c(O)c(NC(=O)c4ccc(O)c(CC=C(C)C)c4)c(=O)oc3c2C)OC1(C)C
IC50 (second compound 0.0316 µM): 14.3 nM | IC50 (second compound 0.1 µM): 15.7 nM | IC50 (second compound 0.316 µM): 15.8 nM | IC50 (second compound 1 µM): 16.6 nM | IC50 (second compound 3.16 µM): 18.6 nM | IC50 (second compound 10 µM): 18.9 nM | viability, T/C [25]: 96% | viability, T/C [26]: 55.5% | viability, T/C [1]: 38% | viability, T/C [2]: 30.8% | viability, T/C [3]: 30.7% | viability, T/C [4]: 30.5% | viability, T/C [27]: 94.7% | viability, T/C [28]: 58.7% | viability, T/C [5]: 35.3% | viability, T/C [6]: 35% | viability, T/C [7]: 28.9% | viability, T/C [8]: 28.2% | viability, T/C [29]: 90% | viability, T/C [30]: 60.6% | viability, T/C [9]: 33.6% | viability, T/C [10]: 31.8% | viability, T/C [11]: 27.2% | viability, T/C [12]: 29.9% | viability, T/C [31]: 84.8% | viability, T/C [32]: 61.8% | viability, T/C [13]: 35.2% | viability, T/C [14]: 30.1% | viability, T/C [15]: 30.9% | viability, T/C [16]: 30.5% | viability, T/C [33]: 87.6% | viability, T/C [34]: 69.5% | viability, T/C [17]: 33.3% | viability, T/C [18]: 28.9% | viability, T/C [19]: 35.6% | viability, T/C [20]: 32.1% | viability, T/C [35]: 89.7% | viability, T/C [36]: 64.6% | viability, T/C [21]: 38.4% | viability, T/C [22]: 32% | viability, T/C [23]: 32.5% | viability, T/C [24]: 34%

Cn1ncnc1[C@H]1c2n[nH]c(=O)c3cc(F)cc(c23)N[C@@H]1c1ccc(F)cc1 + COC1C(OC(N)=O)C(O)C(Oc2ccc3c(O)c(NC(=O)c4ccc(O)c(CC=C(C)C)c4)c(=O)oc3c2C)OC1(C)C
IC50 (second compound 0.0316 µM): > 100 nM | IC50 (second compound 0.1 µM): > 100 nM | IC50 (second compound 0.316 µM): > 100 nM | IC50 (second compound 1 µM): > 100 nM | IC50 (second compound 3.16 µM): > 100 nM | IC50 (second compound 10 µM): > 100 nM | viability, T/C (second compound 0.0316 µM, first compound 0.000316 µM): 118% | viability, T/C (second compound 0.0316 µM, first compound 0.001 µM): 91.9% | viability, T/C [25]: 95.2% | viability, T/C [26]: 96.6% | viability, T/C [1]: 102% | viability, T/C [2]: 91.4% | viability, T/C (second compound 0.1 µM, first compound 0.000316 µM): 103% | viability, T/C (second compound 0.1 µM, first compound 0.001 µM): 100% | viability, T/C [27]: 103% | viability, T/C [28]: 103% | viability, T/C [5]: 100% | viability, T/C [6]: 97.2% | viability, T/C (second compound 0.316 µM, first compound 0.000316 µM): 99.9% | viability, T/C (second compound 0.316 µM, first compound 0.001 µM): 99.2% | viability, T/C [29]: 99.4% | viability, T/C [30]: 97.4% | viability, T/C [9]: 93.8% | viability, T/C [10]: 87.2% | viability, T/C (second compound 1 µM, first compound 0.000316 µM): 98.8% | viability, T/C (second compound 1 µM, first compound 0.001 µM): 95.6% | viability, T/C [31]: 101% | viability, T/C [32]: 99.2% | viability, T/C [13]: 86.5% | viability, T/C [14]: 95.1% | viability, T/C (second compound 3.16 µM, first compound 0.000316 µM): 110% | viability, T/C (second compound 3.16 µM, first compound 0.001 µM): 98.8% | viability, T/C [33]: 108% | viability, T/C [34]: 98.1% | viability, T/C [17]: 95.8% | viability, T/C [18]: 90.5% | viability, T/C (second compound 10 µM, first compound 0.000316 µM): 108% | viability, T/C (second compound 10 µM, first compound 0.001 µM): 89.8% | viability, T/C [35]: 96.4% | viability, T/C [36]: 102% | viability, T/C [21]: 107% | viability, T/C [22]: 94.4%
